# Source: US8962627B2, “Oxime derivatives and their use as allosteric modulators of metabotropic glutamate receptors” (Prestwick Chemical, Inc., priority 2009, dated 2015)
# pEC50: −log10 of the molar value. Structures can show the parent of a compound that is named as a salt.
# Biological target: T1, human mGluR4 transiently over-expressed in HEK-293 cells (Homo sapiens, UniProt Q14833)
# T1 construct: expressed in transfected cells; host or cells: HEK-293 cells, transient co-transfection by electroporation
# T1 sequence (Q14833 33-912): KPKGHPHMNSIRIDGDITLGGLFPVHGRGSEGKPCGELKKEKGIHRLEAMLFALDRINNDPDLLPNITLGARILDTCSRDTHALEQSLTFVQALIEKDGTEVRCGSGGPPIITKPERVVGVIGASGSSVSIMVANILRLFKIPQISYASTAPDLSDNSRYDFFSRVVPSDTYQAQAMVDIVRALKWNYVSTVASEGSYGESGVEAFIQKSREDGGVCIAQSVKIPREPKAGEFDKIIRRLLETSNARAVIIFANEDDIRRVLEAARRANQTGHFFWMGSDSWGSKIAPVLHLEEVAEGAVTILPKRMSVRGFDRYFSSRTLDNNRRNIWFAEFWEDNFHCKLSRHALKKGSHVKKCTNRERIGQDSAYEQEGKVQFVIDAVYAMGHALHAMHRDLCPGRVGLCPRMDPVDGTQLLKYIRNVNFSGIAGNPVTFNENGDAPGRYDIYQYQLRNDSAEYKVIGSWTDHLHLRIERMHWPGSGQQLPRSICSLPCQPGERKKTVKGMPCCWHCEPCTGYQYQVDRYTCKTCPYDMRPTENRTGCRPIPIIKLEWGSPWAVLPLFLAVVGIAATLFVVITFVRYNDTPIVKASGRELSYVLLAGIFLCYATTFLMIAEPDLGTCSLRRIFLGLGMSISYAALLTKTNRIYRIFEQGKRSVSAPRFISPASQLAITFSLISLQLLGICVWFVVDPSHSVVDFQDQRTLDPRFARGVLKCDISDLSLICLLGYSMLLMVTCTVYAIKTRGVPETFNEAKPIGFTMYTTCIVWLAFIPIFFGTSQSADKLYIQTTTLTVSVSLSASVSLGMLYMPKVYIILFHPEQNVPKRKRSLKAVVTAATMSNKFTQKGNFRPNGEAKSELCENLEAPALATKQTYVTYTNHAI
# Assay: Human mGluR4 positive allosteric modulator evaluation using Ca++ functional assay
# Format: cell-based
# Conditions: HEK-293 cells co-transfected with hmGluR4 and chimeric G protein; EC10 glutamate; intracellular calcium (Fluo4AM); read-out: mean EC50 of agonist/positive allosteric modulator activity on mGluR4
# Protocol: Human mGluR4 Positive Allosteric Modulator Evaluation Using Ca^++ Functional Assay
# Compounds of the present invention were tested successively for their agonist and positive allosteric modulator activities on human mGluR4 transiently over-expressed in HEK-293 cells. They exert agonist activity if, by themselves in absence of the endogenous glutamate, they are able to activate mGluR4; and they exert positive allosteric modulator activity if they increase the action of the endogenous glutamate.
# Cell Culture and Transfection
# HEK-293 cells were maintained in Modified Eagle's Medium supplemented with 10% Foetal Calf Serum, 1% Penicillin/Streptomycin and 1% non essential amino acids at 37° C./5% CO2.
# Cells were co-transfected by electroporation with two DNA plasmids encoding hmGluR4 and a chimeric G protein allowing redirection of the activation signal to intracellular calcium pathway. Cells were plated after transfection onto polyornithine coated, clear bottom, black-walled, 96-well plates and cultured for 24 h.
# Calcium Assay EC50 Determination
# Receptor activity was detected by changes in intracellular calcium measured using the fluorescent Ca^2+ sensitive dye, Fluo4AM (Molecular Probes).
# The day of the assay, medium was aspirated and replaced during 3 hours by medium without serum supplemented with 1% Glutamax, 1% Penicillin/Streptomycin and 1% non essential amino acids. Then, cells were washed with freshly prepared buffer B (HBSS 1×(PAA), Hepes 20 mM, MgSO4-7H2O 1 mM, Na2CO3 3.3 mM, CaCl2-2H2O 1.3 mM, 0.5% BSA, Probenecid 2.5 mM) and loaded at 37° C. in 5% CO2 for 1.5 hours with buffer B containing 1 μM Fluo4AM 0.1 mg/mL Pluronic Acid, 7 μg/mL Glutamate Pyruvate Transaminase and 2 mM sodium pyruvate. Afterwards cells were washed twice with buffer B and 50 μL of this buffer were added to each well. Addition of compounds and intracellular Ca^2+ measurements (excitation 485 nm, emission 525 nm) were performed by the fluorescence microplate reader FlexStation (Molecular Devices).
# Agonist and positive allosteric modulator activities of compounds were consecutively evaluated on the same cells plate. Agonist activity was first tested during 60 s with the addition of compound alone on the cells. Then, the cells were stimulated by an EC10 glutamate concentration and fluorescence recorded for additional 60 s. EC10 glutamate concentration is the concentration giving 10% of the maximal glutamate response. Agonist and/or positive allosteric modulator activity(ies) were evaluated in comparison to basal signal evoked by EC10 glutamate alone.
# For EC50 determination, a dose-response test was performed using 6 to 9 concentrations of each compound of the invention. Dose-response curves were fitted using the sigmoidal dose-response (variable slope) analysis in GraphPad Prism program (Graph Pad Inc) and EC50 of agonist/positive allosteric modulator activity was calculated. Dose-response experiments were all performed in duplicate, two times independently.
row,Compound,pEC50
1,"ON=c1cc(-c2cc3ccccc3cn2)oc2cc(C#Cc3ccccc3)ccc12 (mixture of isomers) [Example 20, 2-isoquinolin-3-yl-7-phenylethynyl-chromen-4-one oxime]",> 6.00
2,"ON=c1cc(-c2cc3ccccc3cn2)oc2cc(CCc3ccccc3)ccc12 (mixture of isomers) [Example 22, 2-isoquinolin-3-yl-7-phenethyl-chromen-4-one oxime]",> 5.30
3,"COc1ccc(C#Cc2ccc3c(=NO)cc(-c4cc5ccccc5cn4)oc3c2)cc1 (mixture of isomers) [Example 31, 2-isoquinolin-3-yl-7-(4-methoxyphenyl)ethynyl-chromen-4-one oxime]",> 5.30
4,"C#Cc1ccc2c(=NO)cc(-c3cc4ccccc4cn3)oc2c1 (mixture of isomers) [Example 23, 7-ethynyl-2-isoquinolin-3-yl-chromen-4-one oxime]",> 6.00

# The remaining lines, values ahead:
row,pEC50,Compound
1,> 6.00,"ON=c1cc(-c2cc3cccn3cn2)oc2ccc(OCCCOc3ccc(F)cc3)cc12 [Example 161, 6-[3-(4-Fluoro-phenoxy)-propoxy]-2-pyrrolo[1,2-c]pyrimidin-3-yl-chromen-4-one oxime]"
2,> 6.00,"ON=c1cc(-c2cc3cccn3cn2)oc2ccc(OCCCOc3ccc(F)c(F)c3)cc12 [Example 164, 6-[3-(3,4-Difluoro-phenoxy)-propoxy]-2-pyrrolo[1,2-c]pyrimidin-3-yl-chromen-4-one oxime]"
3,> 6.00,"ON=c1cc(-c2cc3cccn3cn2)oc2ccc(O)cc12 [Example 81, 6-Hydroxy-2-pyrrolo[1,2-c]pyrimidin-3-yl-chromen-4-one oxime]"
4,> 6.00,"ON=c1cc(-c2cc3cccn3cn2)oc2ccc(OCCN3CCC(F)(F)CC3)cc12 [Example 103, hydrochloride]"
5,> 6.00,"ON=c1cc(-c2cc3cccn3cn2)oc2ccc(OCCn3ccnc3)cc12 [Example 105, 6-(2-imidazol-1-O-ethoxy)-2-pyrrolo[1,2-c]pyrimidin-3-yl-chromen-4-one oxime]"
6,> 5.30,"CC1CCCN1CCOc1ccc2oc(-c3cc4cccn4cn3)cc(=NO)c2c1 (stereo not shown) [Example 92, 6-[2-(2-methyl-pyrrolidin-1-yl)-ethoxy]-2-pyrrolo[1,2-c]pyrimidin-3-yl-chromen-4-one oxime, hydrochloride]"
7,> 6.00,"ON=c1cc(-c2cc3cccn3cn2)oc2ccc(OCCCOc3ccccc3)cc12 [Example 162, 6-(3-Phenoxy-propoxy)-2-pyrrolo[1,2-c]pyrimidin-3-yl-chromen-4-one oxime]"
8,> 5.30,"Cc1c(-c2cc3ccccc3cn2)oc2ccccc2c1=NO [Example 71, 2-Isoquinolin-3-yl-3-methyl-chromen-4-one oxime]"
9,> 5.30,"CCN1CCN(CCOc2ccc3oc(-c4cc5cccn5cn4)cc(=NO)c3c2)CC1.Cl.Cl [Example 121, 6-[2-(4-ethyl-piperazin-1-yl-ethoxy]-2-pyrrolo[1,2-c]pyrimidin-3-yl-chromen-4-one oxime, dihydrochloride]"
10,> 6.00,ON=c1cc(-c2cc3cccn3cn2)oc2ccc(/C=C\CN3CCOCC3)cc12 [Example 107]
11,> 6.00,"ON=c1cc(-c2cc3cccn3cn2)oc2ccc(OCCc3ccc(F)cc3)cc12 [Example 109, 6-[2-(4-fluoro-phenyl)-ethoxy]-2-pyrrolo[1,2-c]pyrimidin-3-yl-chromen-4-one oxime, hydrochloride]"
12,> 6.00,"O=C(COc1ccc2oc(-c3cc4cccn4cn3)cc(=NO)c2c1)Nc1ccc(F)cn1 [Example 152, N-(5-Fluoro-pyridin-2-yl)-2-{4-hydroxyimino-2-pyrrolo[1,2-c]pyrimidin-3-yl-4H-chromen-6-yloxy}-acetamide]"
13,> 6.00,"ON=c1cc(-c2cc3sccc3cn2)oc2ccc(OCCc3ccc(F)cc3)cc12 [Example 130, 6-[2-(4-Fluoro-phenyl)-ethoxy]-2-thieno[3,2-c]pyridin-6-yl-chromen-4-one oxime]"
14,> 6.00,"ON=c1cc(-c2cc3cccn3cn2)oc2ccc(OCCN3CCC(C(F)(F)F)CC3)cc12 [Example 113, 2-pyrrolo[1,2-c]pyrimidin-3-yl-6-[2-(4-trifluoromethyl-piperidin-1-yl)-ethoxy]chromen-4-one oxime, hydrochloride]"
15,> 6.00,"COCCOc1ccc2oc(-c3cc4cccn4cn3)cc(=NO)c2c1 [Example 67, 6-methoxyethoxy-2-Pyrrolo[1,2-c]pyrimidin-3-yl-chromen-4-one oxime]"
16,> 5.30,"ON=c1cc(-c2cc3cccn3cn2)oc2cccc(OCCCN3CCOCC3)c12 [Example 157, 5-(3-Morpholin-4-yl-propoxy)-2-pyrrolo[1,2-c]pyrimidin-3-yl-chromen-4-one oxime, hydrochloride]"
17,> 6.00,"O=C(COc1ccc2oc(-c3cc4cccn4cn3)cc(=NO)c2c1)Nc1ccc(F)cc1 [Example 150, N-(4-Fluoro-phenyl)-2-{4-hydroxyimino-2-pyrrolo[1,2-c]pyrimidin-3-yl-4H-chromen-6-yloxy}-acetamide]"

# System: not given
# Assay: not given
# Conditions: not given
row,Compound,melting point
1,"CN1CCN(CCCNc2ccc3oc(-c4cc5ccccc5cn4)cc(=NO)c3c2)CC1 [Example 45, 2-isoquinolin-3-yl-6-[3-(4-methyl-piperazin-1-yl)-propylamino]-chromen-4-one oxime]",208 to 211 °C
2,"CN1CCN(CCOc2ccc3oc(-c4cc5ccccc5cn4)cc(=NO)c3c2)CC1 [Example 46, 2-isoquinolin-3-yl-6-[2-(4-methyl-piperazin-1-yl)-ethoxy]-chromen-4-one oxime]",233 to 236 °C
3,Cl.ON=c1cc(-c2cc3sccc3cn2)oc2ccc(OCCN3CCc4ccccc4C3)cc12,234 to 237 °C
4,"ON=c1cc(-c2cc3ccc(F)cc3cn2)oc2ccccc12 [Example 12, 2-(7-fluoro-isoquinolin-3-yl)-chromen-4-one oxime]",233 to 235 °C
5,"ON=c1cc(-c2cc3ccccc3cn2)oc2c(F)cc(F)cc12 [Example 7, 6,8-difluoro-2-isoquinolin-3-yl-chromen-4-one oxime]",253 to 256 °C
6,"ON=c1cc(-c2cc3ccc(O)cc3cn2)oc2ccccc12 [Example 60, 2-(7-hydroxy-isoquinolin-3-yl)-chromen-4-one oxime]",248 to 250 °C
7,"COc1cc2cnc(-c3cc(=NO)c4ccccc4o3)cc2cc1OC [Example 14, 2-(6,7-dimethoxy-isoquinolin-3-yl)-chromen-4-one oxime]",266 to 269 °C
8,Cl.ON=c1cc(-c2cc3sccc3cn2)oc2ccc(OCCN3CCCOCC3)cc12,223 to 226 °C
9,"ON=c1cc(-c2cc3ccc(Cl)cc3cn2)oc2ccccc12 [Example 16, 2-(7-chloro-isoquinolin-3-yl)-chromen-4-one oxime]",260 to 261 °C
10,"CN(C)c1ccc(C#Cc2ccc3c(=NO)cc(-c4cc5ccccc5cn4)oc3c2)cc1 [Example 27, 7-(4-dimethylaminophenyl)ethynyl-2-isoquinolin-3-yl-chromen-4-one oxime]",235 to 240 °C
11,"CN1CCN(CCCNc2ccc3c(=NO)cc(-c4cc5ccccc5cn4)oc3c2)CC1 [Example 49, 2-isoquinolin-3-yl-7-[3-(4-methyl-piperazin-1-yl)-propylamino]-chromen-4-one oxime]",228 to 233 °C
12,Cl.ON=c1cc(-c2cc3cccn3cn2)oc2ccc(OCCNC3CCCC3)cc12,> 230 °C (dec.)
13,"COc1ccc2cc(-c3cc(=NO)c4ccccc4o3)ncc2c1 [Example 13, 2-(7-methoxy-isoquinolin-3-yl)-chromen-4-one oxime]",239 to 241 °C

# Other lines, results leading:
row,melting point,Compound
1,228 to 234 °C,"ON=c1cc(-c2cc3sccc3cn2)oc2ccc(OCCc3ccc(F)cc3)cc12 (as salt: hydrochloride) [Example 130, 6-[2-(4-Fluoro-phenyl)-ethoxy]-2-thieno[3,2-c]pyridin-6-yl-chromen-4-one oxime]"
2,> 240 °C (dec.),CCN1CCN(CCOc2ccc3oc(-c4cc5cccn5cn4)cc(=NO)c3c2)CC1.Cl.Cl [Example 121]
3,148 to 150 °C,"ON=c1cc(-c2cc3c(cn2)ncn3Cc2ccccc2)oc2ccccc12 [Example 68, 2-(1-Benzyl-1H-imidazo[4,5-c]pyridin-6-yl)-chromen-4-one oxime]"
